Where “and” joins values, the source holds several entries; their conditions need not be identical. Identical values can stand only once.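 Assay format: 96-well plates, 48-hour exposure. Abbreviation: GI50, concentration required for 50% inhibition of growth. TGI marks complete inhibition of growth.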
Columns and labels:
Test in all cases: NCI-60 cell line screen, 48 h
[1] = system: NCI/ADR-RES ovarian
[2] = system: KM12 colon
[3] = system: HOP-62 NSCLC
[4] = system: MCF7 breast
[5] = system: RXF 393 renal
[6] = system: CAKI-1 renal
[7] = system: SK-MEL-5 melanoma
[8] = system: 786-0 renal
[9] = system: HCT-15 colon
[10] = system: MOLT-4 leukemia

| Structure (SMILES) | GI50 [1] | TGI [1] | GI50 [2] | TGI [2] | GI50 [3] | TGI [3] | GI50 [4] | TGI [4] | GI50 [5] | TGI [5] | GI50 [6] | TGI [6] | GI50 [7] | TGI [7] | GI50 [8] | TGI [8] | GI50 [9] | TGI [9] | GI50 [10] | TGI [10] |
| --- | --- | --- | --- | --- | --- | --- | --- | --- | --- | --- | --- | --- | --- | --- | --- | --- | --- | --- | --- | --- |
| CCOC(=O)c1c2c(n3ccccc13)C(=O)c1ncccc1C2=O | 0.0348 µM | 3.09 µM | 0.27 µM | 75.9 µM | 0.0777 µM | 8.86 µM | 0.0284 µM | 1.77 µM | 0.0792 µM | 13.9 µM | 0.301 µM | 28.5 µM | 0.142 µM | 1.51 µM | 0.18 µM | 13.8 µM | 0.024 µM | 12.8 µM | 2.43 µM | 76.8 µM |
| Cn1cc(-c2ccc(-c3ccc(C4=NC5(CC5)C(=O)N4C[C@@H]4CCN(C(=O)C5CC5)C4)cc3)cc2)cn1 | 10.4 µM | > 100 µM | 5.39 µM | 32.1 µM | 25.2 µM | > 100 µM | 1.12 µM | > 100 µM | 15.9 µM | 33.3 µM | 12.6 µM | > 100 µM | 2.46 µM | 15.2 µM | 10.5 µM | > 100 µM | 2.71 µM | 43 µM | 4.31 µM | 80.8 µM |
| O=C1C(Cl)=C(NCc2ccco2)C(=O)c2ccccc21 | 31.2 µM | > 100 µM | 8.67 µM | > 100 µM | 17.1 µM | 43.6 µM | 2.39 µM | > 27.9 µM | 21.6 µM | 50.6 µM | 58.1 µM | > 100 µM | 1.62 µM | 3.11 µM | 29 µM | 72.3 µM | 4.77 µM | 56.5 µM | 52.1 µM | > 100 µM |
| NCCCNCCCCNC(=O)C(O)NC(=O)CCCCCCN=C(N)N (centres undefined) | 2190 µM | > 5000 µM | 1360 µM | 619 µM and > 5000 µM | 3470 µM | 750 µM and > 5000 µM | 1750 µM | 750 µM and > 5000 µM | 3480 µM | 750 µM and > 5000 µM | 540 µM and > 3340 µM | 710 µM and > 5000 µM | 1730 µM | > 750 µM and 2820 µM | > 750 µM | > 5000 µM | > 2640 µM | 750 µM and > 5000 µM | 1620 µM | 750 µM and > 4510 µM |
| Cc1cc(C)c(-n2c(-c3ccc(Br)cc3)cs/c2=N\N=C2C=C(C(C)(C)C)C(=O)C(C(C)(C)C)=C2)c(C)c1 | – | > 100 µM | – | > 100 µM | – | > 78.6 µM | – | > 100 µM | – | 81.8 µM | – | > 100 µM | – | > 100 µM | – | > 100 µM | – | > 100 µM | – | > 100 µM |
| Cc1cnc(C(=O)NNc2nc3sc4c(c3c(=O)n2C)C(C)CCC4)cn1 (centres undefined) | 0.392 µM | 10.8 µM | 0.362 µM | 2.16 µM | 0.304 µM | 5.65 µM | 0.29 µM | 1.7 µM | 0.926 µM | 3.6 µM | 0.333 µM | 2.49 µM | 0.363 µM | 1.72 µM | 0.511 µM | 5.52 µM | 0.268 µM | 11.8 µM | 0.346 µM | – |
| CC(C)CC(NC(=O)OC(C)(C)C)C(=O)Nc1ccc(Nc2nc(F)nc(-c3c4ccccc4cn3C)n2)cc1 (centres undefined) | – | > 100 µM | – | 42.3 µM | – | 42.6 µM | – | 31.4 µM | – | > 87.1 µM | – | > 100 µM | – | > 100 µM | – | > 100 µM | – | > 100 µM | – | > 100 µM |
| CCCCCCCc1cc2c3c(nc4ccccc42)C(=O)c2cccnc2-c3n1 | 4.33 µM | 12.6 µM | 1.45 µM | 3.11 µM | 7.14 µM | 20 µM | 1.54 µM | 5.92 µM | 5.67 µM | 11.1 µM | 4.6 µM | 9.51 µM | 4.16 µM | 8.37 µM | 5.1 µM | 10.5 µM | 0.97 µM | 5.58 µM | 1.54 µM | > 20.2 µM |
| COc1cc2c(cc1OC)C13CCN4CC5CCOC6CC(=O)N2C1C6C5CC43 (centres undefined) | – | > 100 µM | – | > 100 µM | – | > 100 µM | – | > 100 µM | – | > 100 µM | – | > 100 µM | – | > 100 µM | – | > 100 µM | – | > 100 µM | – | > 100 µM |
| COc1ccc(-c2ccc(-c3ccc(C(=N)N)o3)o2)cc1 | 1.88 µM | 10.1 µM | 0.585 µM | 6.73 µM | 1.51 µM | 4.51 µM | 0.325 µM | 1.57 µM | 2.12 µM | 8.81 µM | 1.75 µM | 4.29 µM | 2.8 µM | 12.1 µM | 2.22 µM | 5.64 µM | 0.675 µM | 4.72 µM | 1.2 µM | 4.3 µM |
| O=C1C(=O)c2cccnc2-c2ncccc21 | 0.0898 µM | 0.281 µM | 0.409 µM | 1.59 µM | 0.225 µM | 0.882 µM | 0.232 µM | 0.554 µM | 0.0768 µM | 0.266 µM | 0.605 µM | 1.92 µM | 0.239 µM | 0.801 µM | 1.22 µM | 2.5 µM | 0.185 µM | 1.42 µM | 0.171 µM | 0.509 µM |
| CCN(CC)c1ccc(C(=O)c2ccc(N(CC)CC)cc2)cc1 | 0.355 µM | 1.89 µM | 0.349 µM | 8.89 µM | 0.805 µM | 98.2 µM | 0.416 µM | > 74.4 µM | 0.444 µM | 1.63 µM | 0.364 µM | > 36.7 µM | 0.384 µM | 12.7 µM | 0.668 µM | 28.3 µM | 0.412 µM | 36.1 µM | 0.718 µM | 19.8 µM |
